# Measurements taken from ChEMBL document CHEMBL5247584, “Design, synthesis and evaluation of fused hybrids with acetylcholinesterase inhibiting and Nrf2 activating functions for Alzheimer's disease” (Eur J Med Chem, 2022).
# Calls of active or inactive are those of the source. The calls are words filed in the database; no cut-off is given here.
# Key:
# [1] = target: T1, Nuclear factor erythroid 2-related factor 2 (Rattus norvegicus) (UniProt O54968); test: Induction of Nrf2 pathway in rat PC12 cells assessed as fold increase in Nrf2 level at 20 uM measured after 6 hrs by Western blot analysis; type: cell-based; details: filed as activator
# T1 sequence (whole entry): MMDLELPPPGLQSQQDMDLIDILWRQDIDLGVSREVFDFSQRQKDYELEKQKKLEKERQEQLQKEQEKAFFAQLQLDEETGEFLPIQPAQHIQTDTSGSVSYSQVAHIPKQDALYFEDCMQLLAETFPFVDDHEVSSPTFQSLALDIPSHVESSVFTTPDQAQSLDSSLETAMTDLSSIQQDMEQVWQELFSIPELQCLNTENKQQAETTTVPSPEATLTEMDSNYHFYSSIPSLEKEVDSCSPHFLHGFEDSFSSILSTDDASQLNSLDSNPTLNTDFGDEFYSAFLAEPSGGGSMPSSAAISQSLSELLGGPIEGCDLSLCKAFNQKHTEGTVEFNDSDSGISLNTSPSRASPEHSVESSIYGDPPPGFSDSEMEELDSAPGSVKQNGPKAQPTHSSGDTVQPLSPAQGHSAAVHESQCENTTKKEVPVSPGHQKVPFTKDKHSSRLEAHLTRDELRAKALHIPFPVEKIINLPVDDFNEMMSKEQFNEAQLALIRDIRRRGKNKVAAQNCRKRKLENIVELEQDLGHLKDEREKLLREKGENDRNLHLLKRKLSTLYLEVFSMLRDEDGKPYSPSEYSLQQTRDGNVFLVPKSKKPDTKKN
# [2] = […] in rat PC12 cells assessed as morphological changes; type: toxicity, cell-based; details: pc-12
# BV-2 [3] = test: Antiinflammatory activity against LPS-injured mouse BV-2 cells assessed as decrease in IL-1beta level at 5 uM by immunofluorescence staining based analysis; type: functional, cell-based
# [4] = target: T1, Nuclear factor erythroid 2-related factor 2 (Rattus norvegicus); test: Activation of Nrf2 pathway in rat PC-12 cells assessed as fold increase in NQO1 expression level at 1 to 20 uM measured at 6 hrs by qRT-PCR analysis; type: cell-based; details: PC12, filed as activator, dose 1-20 µM
# [5] = target: T1, Nuclear factor erythroid 2-related factor 2 (Rattus norvegicus); test: Activation of Nrf2 pathway in rat PC-12 cells assessed as fold increase in Nrf2 level at 20 uM measured at 2 hrs by qRT-PCR analysis; type: cell-based; details: PC12, filed as activator
# BV-2 [6] = test: Neuroprotective activity against LPS-induced mouse BV-2 cells assessed as inhibition of ROS production at 1 to 40 uM preincubated for 1 hr followed by LPS stimulation and measured after 24 hrs by DCFH-DA staining based microplate reader anlaysis; type: functional, cell-based; details: dose 1-40 µM, time 25.0 hrs
# Mus musculus [7] = test: Neuroprotective activity against Abeta1-42-induced ICR mouse at 10 mg/kg, po by ELISA analysis; type: functional, organism-based
# Mus musculus [8] = test: Antialzheimer activity against scopolamine-induced cognitive impairment ICR mouse model assessed as confuse escape tracks at 3 mg/kg, po administered once a day for 10 days and measured after 5 to 10 days by Morris water maze test; type: functional, organism-based; details: time 5-10 day
# [9] = target: T1, Nuclear factor erythroid 2-related factor 2 (Rattus norvegicus); test: Activation of Nrf2 pathway in rat PC-12 cells assessed as fold increase in GCLM expression level at 1 to 20 uM measured at 6 hrs by qRT-PCR analysis; type: cell-based; details: PC12, filed as activator, dose 1-20 µM
# Mus musculus [10] = test: Antiinflammatory activity Abeta1-42-induced against ICR mouse assessed as increase in TGF-beta1 level at 20 mg/kg, po by ELISA analysis; type: functional, organism-based
# HepG2-ARE-C8 = test: Cytotoxicity against human HepG2-ARE-C8 cells assessed as reduction in cell viability at 5 and 20 uM measured for 24 hrs by MTT assay; type: functional, cell-based
# Mus musculus [11] = test: Antiinflammatory activity Abeta1-42-induced against ICR mouse assessed as increase in TGF-beta1 level at 10 mg/kg, po by ELISA analysis; type: functional, organism-based
# [12] = target: T1, Nuclear factor erythroid 2-related factor 2 (Rattus norvegicus); test: Activation of Nrf2 pathway in rat PC-12 cells assessed as fold increase in NQO1 level at 20 uM measured at 2 hrs by qRT-PCR analysis; type: cell-based; details: PC12, filed as activator
smiles,measurement,setting,value
Cc1ccc(-c2noc(-c3cccc(OCC4CCN(Cc5cccc(F)c5)CC4)c3)n2)cn1,fold change (FC),[1],4
same,Activity,[2],Non-Toxic
same,Activity,BV-2 [3],inactive
same,fold change (FC),[4],4
same,fold change (FC),[5],4
same,Activity,BV-2 [6],Active
same,Activity,Mus musculus [7],Active
same,Activity,Mus musculus [8],Active
same,fold change (FC),[9],4
same,Activity,Mus musculus [10],Active
same,Activity,HepG2-ARE-C8,inactive
same,Activity,Mus musculus [11],Active
same,fold change (FC),[12],8
